# From EP0331014A2, “Use of ACE inhibitors in diabetes prophylaxis” (THERA - Patent Verwaltungs-GmbH, priority 1988, dated 1989)
# System: ÜBERGEWICHTIGEN FRAUEN
# Test: Three-year placebo-controlled prophylaxis study: incidence of diabetes mellitus in overweight persons with impaired oral glucose tolerance
# Format: in vivo, Patienten
# Details: for DIABETES MELLITUS (ERKRANKUNGSRATE AN DIABETES MELLITUS): number of cases (WHO definition), 2 X 3 mg tgl.
# Source text: Es wurden 122 übergewichtigte Personen ausgesucht, die im Mittel 25 % Übergewicht und eine gestörte orale Glukosetoleranz hatten. Diese Patienten gaben nach Aufklärung ihr Einverständnis an dieser Studie über 3 Jahre teilzunehmen. Sie hatten bereits 5 bis 10 Versuche einer Gewichtsabnahme hinter sich, die alle erfolglos verlaufen waren. Ein Diabetes mellitus war nach der Definition des World Health Organization-Reports (Techn. Rep. Ser. 646, 1-80, 1980), bei diesen Patieten ausgeschlossen. Sie wurden in zwei gleich starke Gruppen eingeteilt, so daß nach Alter, Ausmaß der Störung des Glucose-Toleranz-Tests (OGTT) und Größe und Dauer des Übergewichts kein Unterschied bestand. Die Patienten wurden in halbjährlichen Abständen ambulant kontrolliert. Wie zu Beginn, wurden bei diesen Kontrollen folgende Blutwerte gemessen: Blutsenkung, Blutbild, Nüchternblutzucker, OGTT, Gewicht, Cholesterin und Triglyzeride, Serum Glutamat-Oxalat-Transaminase (SGOT), Serum Glutamat-Pyruvat Transaminase (SGPT). Damit wurden den Stoffwechesl beeinträchtigende Krankheiten ausgeschlossen.
# Sie erste Gruppe erhielt 2 x 3 mg Captopril täglich, die zweite entsprechend Placebo. Die Patienten hatten die Auflage, keine den Stoffwech l beeinträchtigende Medikamente, z.B. Diuretika, β-Blocker ode dergleichen einzunehmen. In beiden Gruppen schieden über den Zeitraum von 3 Jahren 28 Patienten aus verschiede nen Gründen aus. Die Gruppen veränderten sich dadurch jedoch nicht so, daß sie statistisch nicht mehr auswertbar waren.
structure (smiles),measurement,setting,value
"C[C@H](CS)C(=O)N1CCC[C@H]1C(=O)O [Captopril, 1-[(2S)-3-Mercapto-2-methylpropionyl]-L-prolin]",Erkrankungsrate an Diabetes mellitus,"nach 3 Jahren, versus placebo, 2 x 3 mg täglich, p < 0,001 (Student's t-Test)",geringere Erkrankungsrate an Diabetes mellitus
same,DIABETES MELLITUS (ERKRANKUNGSRATE AN DIABETES MELLITUS),"ZEITRAUM 1985 -1 (start), 63 in group",0
same,DIABETES MELLITUS (ERKRANKUNGSRATE AN DIABETES MELLITUS),"ZEITRAUM 1986 - 2, 60 in group",2
same,DIABETES MELLITUS (ERKRANKUNGSRATE AN DIABETES MELLITUS),"ZEITRAUM 1987 - 2, 54 in group",4
same,DIABETES MELLITUS (ERKRANKUNGSRATE AN DIABETES MELLITUS),"ZEITRAUM 1988 - 1, 48 in group, placebo 11 of 46, p< 0,001",4
same,Verminderung dieses Risikos (an Diabetes mellitus zu erkranken),"risk groups (strongly overweight, older than 50 years; risk about 45 % over two years), 2 x 3 mg pro Tag",> 50%
